One assay addresses T1, CYP11B1 in NCI-H295R (Homo sapiens, UniProt P15538).
T1 sequence (P15538 25-503): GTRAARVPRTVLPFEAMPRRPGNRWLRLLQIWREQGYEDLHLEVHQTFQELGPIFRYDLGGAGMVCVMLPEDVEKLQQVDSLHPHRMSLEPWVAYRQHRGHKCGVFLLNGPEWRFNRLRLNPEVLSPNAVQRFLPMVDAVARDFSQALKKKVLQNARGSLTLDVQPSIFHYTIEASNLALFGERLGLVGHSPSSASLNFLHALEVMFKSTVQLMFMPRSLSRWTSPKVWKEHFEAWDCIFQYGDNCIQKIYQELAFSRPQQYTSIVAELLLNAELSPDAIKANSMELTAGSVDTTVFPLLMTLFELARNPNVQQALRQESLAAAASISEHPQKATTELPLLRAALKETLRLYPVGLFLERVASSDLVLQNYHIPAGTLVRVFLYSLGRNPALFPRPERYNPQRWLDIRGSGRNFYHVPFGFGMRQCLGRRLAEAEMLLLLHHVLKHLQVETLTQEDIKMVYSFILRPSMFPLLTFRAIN
In words: cell-based. To be noted: read-out: NCI-H295R CYP11B1 RSS % inhibition. The procedure:
(§1) For testing inhibitors, a preincubation for one hour was performed first, followed by starting the enzyme reactions by adding substrate (500 nM).
(§2) A) Seeding: The cell lines were grown and passaged until a confluent cell lawn had formed. By tryptic treatment, the cell material of at least two culture dishes was obtained, and the number of cells determined by means of a CASY TT cell counter (150 μl capillary). […] With the cell material of two confluently grown culture dishes, two 24-well plates could be coated. After 24 hours, the cells had grown on, and after another 24 hours' stimulation phase with a solution containing potassium ions (final concentration: 20 mM KCl), could be employed for the test.
(§3) Of this solution, 5 μl each was added to the samples.
(§4) Then, the 24-well plate was stored in a CO2 incubator at 37° C. and […]. The incubation time was 3 hours when deoxycorticosterone was used as the substrate, 24 Hours for corticosterone, and 48 hours for deoxycortisol.
Test stop: After elapse of the incubation times, the plates were briefly swung, and then the content of the wells was removed quantitatively if possible and inactivated by mixing with 1000 μl of dichloromethane in a 2 ml Eppendorf vessel. After 10 minutes of shaking, it was centrifuged for phase separation, and the […], organic phase was transferred into a 1.5 ml Eppendorf vessel. […]

A further assay addresses T2, CYP11B2 in NCI-H295R (Homo sapiens, UniProt P19099).
T2 construct: contain 5 steroidogenic CYP450 enzymes, including 17-alpha-hydroxylase, CYP11B1 and CYP11B2; endogenous in cells; host or cells: NCI-H295R
T2 sequence (P19099 25-503): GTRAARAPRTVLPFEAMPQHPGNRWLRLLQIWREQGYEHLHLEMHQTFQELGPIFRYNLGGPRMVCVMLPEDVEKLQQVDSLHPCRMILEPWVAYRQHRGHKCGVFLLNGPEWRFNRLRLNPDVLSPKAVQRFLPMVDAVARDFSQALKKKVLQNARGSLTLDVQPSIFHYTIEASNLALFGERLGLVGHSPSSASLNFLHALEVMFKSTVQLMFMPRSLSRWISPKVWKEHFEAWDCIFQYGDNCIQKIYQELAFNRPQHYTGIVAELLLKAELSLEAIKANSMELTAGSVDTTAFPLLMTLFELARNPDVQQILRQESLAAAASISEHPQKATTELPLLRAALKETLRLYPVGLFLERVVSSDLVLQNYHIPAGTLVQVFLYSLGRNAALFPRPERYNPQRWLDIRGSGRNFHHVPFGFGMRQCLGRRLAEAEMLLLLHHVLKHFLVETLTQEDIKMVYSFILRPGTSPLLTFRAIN
In words: NCI-H295R cells, CYP11B2 inhibition (substrates corticosterone B or deoxycorticosterone DOC). Type of assay: cell-based. To be noted: for inhibition at 2.5 µM: NCI-H295R. The protocol: as §1, §2
In the substrate solutions for the examinations on CYP11B2, the corticosterone substrate solution (final concentration in the test: 500 nM) consisted of 38.4 μl of [1,2-^3H(N)]corticosterone (1 mCi/ml, 76.5 Ci/mmol; NEN-Perkin-Elmer) in ethanol, 39.0 μl of unlabeled corticosterone solution (0.5 mM in ethanol) and 122.6 μl of ethanol. Deoxycorticosterone, which was also employed in a final concentration of 500 nM, was composed of 18 μl of [^14C]-labeled deoxycorticosterone (60.0 mCi/mmol; 0.5 nCi/μl) in ethanol in admixture with 54 μl of unlabeled substance (0.5 mM in ethanol) and 228 μl of ethanol.
as §3, §4
Test stop: After elapse of the incubation times, the plates were briefly swung, and then the content of the wells was removed quantitatively if possible and inactivated by mixing with 1000 μl of dichloromethane in a 2 ml Eppendorf vessel. After 10 minutes of shaking, it was centrifuged for phase separation, and the […], organic phase was transferred into a 1.5 ml Eppendorf vessel.
After evaporating the solvent over night under a hood, the residue was taken up in 10 μl of chloroform and applied to the center of the concentration zone of an HPTLC plate.
For detecting the steroids on the TLC, the radiation-exposed film was scanned in the phosphoimager FLA 3000 after two days.
For the substrate corticosterone, equation 5 was valid: […]

Where a name gives a salt, the structure may show the parent alone. Read-outs that look alike come from different tables or passages of the source.

In the case of `Fc1ccc2c(c1)CC/C2=C/c1cccnc1` [Compound 5b, 3-[(Z)-(5-Fluoro-2,3-dihydro-1H-indane-1-ylidene)methyl]pyridine Hydrochloride], the values for the inhibition at 2.5 µM on CYP11B1 in NCI-H295R, on CYP11B2 in NCI-H295R (read-out: NCI-H295R CYP11B2 B % inhibition) and at CYP11B2 in NCI-H295R (read-out: NCI-H295R CYP11B2 DOC % inhibition) were 73.1%, 6.9% and 89.2%, respectively. In addition, the IC50 is 17 µM at CYP11B2 in NCI-H295R (K+ stimulation 20 mM, substrate [3H]-corticosterone (B) 500 nM, incubation 24 h, read-out: NCI-H295R CYP11B2 B [IC50]) and 0.156 µM at CYP11B2 in NCI-H295R (substrate [14C]deoxycorticosterone (DOC) 500 nM, incubation 3 h, read-out: NCI-H295R CYP11B2 DOC [IC50]).

For orientation: inhibition means the share of the control response that was lost under treatment. In general, IC50 refers to the concentration that inhibits the measured activity by half.
